Results published in patent publication US7541464B2, “7-azaindoles, pharmaceutical compositions and their therapeutic applications” (Sanofi-Aventis Deutschland GmbH, priority 2004, dated 2009).
Where two headings read alike, the source gives them in different places. Each block holds one compound with its values, some of them ahead of it.

Experiments:
human PPARdelta = molecular target: T1, human PPARdelta (Homo sapiens, UniProt Q03181); assay: Cellular PPARdelta assay (HEK luciferase reporter cell line); type: cell-based; conditions: PPARdelta reporter cell line (HEK, GR-GAL4-humanPPARdelta-LBD)
T1 construct: amino acids S139-Y441; expressed in transfected cells; plasmid pcDNA3
T1 sequence (Q03181 139-441): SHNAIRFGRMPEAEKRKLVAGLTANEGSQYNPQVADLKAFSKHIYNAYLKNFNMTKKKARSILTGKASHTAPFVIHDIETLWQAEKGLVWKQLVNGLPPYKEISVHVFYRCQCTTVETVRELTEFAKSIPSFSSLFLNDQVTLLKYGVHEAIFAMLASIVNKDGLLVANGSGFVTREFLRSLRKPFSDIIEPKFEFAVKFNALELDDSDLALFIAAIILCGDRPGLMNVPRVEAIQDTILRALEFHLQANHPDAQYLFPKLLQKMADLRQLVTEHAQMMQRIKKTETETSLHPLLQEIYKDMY
Description: The potency of substances which bind to human PPARdelta and activate it in an agonistic manner is analyzed using a stably transfected HEK cell line (HEK=human embryo kidney) which is referred to here as PPARdelta reporter cell line. In analogy to the assay described for PPARalpha, the PPARdelta reporter cell line also contains two genetic elements, a luciferase reporter element (pdeltaM-GAL4-Luc-Zeo) and a PPARdelta fusion protein (GR-GAL4-humanPPARdelta-LBD) which mediates expression of the luciferase reporter element depending on a PPARdelta ligand. The stably and constitutively expressed fusion protein GR-GAL4-humanPPARdelta-LBD binds in the cell nucleus of the PPARdelta reporter cell line via the GAL4 protein portion to the GAL4 DNA binding motifs 5′-upstream of the luciferase reporter element which is stably integrated in the genome of the cell line. […] The luciferase which is formed can be detected by means of chemiluminescence via an appropriate substrate. […]
The activity of PPARdelta agonists is determined in a 3-day assay in exact analogy to the procedure already described for the PPARalpha reporter cell line except that the PPARdelta reporter cell line and a specific PPARdelta agonist was used as a standard to control test efficacy.

human PPARalpha = molecular target: T2, human PPARalpha (Homo sapiens, UniProt Q07869); assay: Cellular PPARalpha assay (HEK luciferase reporter cell line); type: cell-based; conditions: PPARalpha reporter cell line (HEK, GR-GAL4-humanPPARalpha-LBD)
T2 construct: amino acids S167-Y468; expressed in transfected cells; plasmid pcDNA3
T2 sequence (Q07869 167-468): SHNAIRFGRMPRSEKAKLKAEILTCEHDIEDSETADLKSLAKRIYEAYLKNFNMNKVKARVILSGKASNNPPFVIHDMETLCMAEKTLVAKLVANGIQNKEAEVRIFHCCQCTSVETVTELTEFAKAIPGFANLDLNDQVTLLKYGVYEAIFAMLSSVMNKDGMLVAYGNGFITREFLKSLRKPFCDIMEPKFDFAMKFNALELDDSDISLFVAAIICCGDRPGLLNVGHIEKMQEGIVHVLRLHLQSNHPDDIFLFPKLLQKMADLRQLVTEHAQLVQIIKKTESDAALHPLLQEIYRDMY
Description: Determination of EC50 Values of PPAR Agonists In the Cellular PPARalpha Assay
The potency of substances which bind to human PPARalpha and activate it in an agonistic manner is analyzed using a stably transfected HEK cell line (HEK=human embryo kidney) which is referred to here as PPARalpha reporter cell line. It contains two genetic elements, a luciferase reporter element (pdeltaM-GAL4-Luc-Zeo) and a PPARalpha fusion protein (GR-GAL4-humanPPARalpha-LBD) which mediates expression of the luciferase reporter element depending on a PPARalpha ligand. The stably and constitutively expressed fusion protein GR-GAL4-humanPPARalpha-LBD binds in the cell nucleus of the PPARalpha reporter cell line via the GAL4 protein portion to the GAL4 DNA binding motifs 5′-upstream of the luciferase reporter element which is stably integrated in the genome of the cell line. There is only weak expression of the luciferase reporter gene in the absence of a PPARalpha ligand if fafty acid-depleted fetal calf serum (cs-FCS) is used in the assay. PPARalpha ligands bind and activate the PPARalpha fusion protein and thereby stimulate the expression of the luciferase reporter gene. The luciferase which is formed can be detected by means of chemiluminescence via an appropriate substrate. […]
The activity of PPARalpha agonists is determined in a 3-day assay which is described below: […]

PPARdelta [1] = conditions: diabetic animal model; cited from earlier work
PPARdelta [2] = conditions: obese, insulin resistant rhesus monkeys; cited from earlier work
PPARdelta/PPARalpha [3] = conditions: two weeks clinical trials in healthy volunteers; cited from earlier work
PPARdelta/PPARalpha [4] = conditions: rhesus and cynomolgus monkeys; cited from earlier work

- EC50 (human PPARdelta): 470 nM
- EC50 (human PPARalpha): 40 nM
Compound: CCCCc1nc(-c2ccc(C(F)(F)F)cc2)sc1Cn1ccc2cc(OCC(=O)O)cnc21 [Example 1, {1-[4-Butyl-2-(4-trifluoromethyl-phenyl)-thiazol-5-ylmethyl]-1H-pyrrolo[2,3-b]pyridin-5-yloxy}-acetic acid]

- EC50 (human PPARdelta): 140 nM
- EC50 (human PPARalpha): 320 nM
Compound: CCCCc1nc(-c2ccc(C(F)(F)F)cc2)sc1Cn1ccc2c(CCC)c(OCC(=O)O)cnc21 [Example 2, {1-[4-Butyl-2-(4-trifluoromethyl-phenyl)-thiazol-5-ylmethyl]-4-propyl-1H-pyrrolo[2,3-b]pyridin-5-yloxy}-acetic acid]

Compound: CCCc1c(OCCCOc2ccc(OCC(=O)O)cc2)ccc(C(C)=O)c1O [Example L-165041]
- plasma cholesterol (PPARdelta [1]): raises plasma cholesterol

Compound: Cc1cc(SCc2sc(-c3ccc(C(F)(F)F)cc3)nc2C)ccc1OCC(=O)O [GW501516]
- HDL-cholesterol (PPARdelta [2]): raises
- plasma LDL-cholesterol (PPARdelta [2]): decreases
- plasma insulin levels (PPARdelta [2]): decreases
- plasma triglycerides (PPARdelta [2]): decreases

Compound: CCCc1c(OCCCSc2nnc(SCC(=O)O)s2)ccc(C(C)=O)c1O [YM-16638]
- plasma lipids (PPARdelta/PPARalpha [3]): acts in a similar manner
- plasma lipids (PPARdelta/PPARalpha [4]): significantly lowers plasma lipids
